Measurements published in US20250041285A1, “MODIFYING THE […] OF A GENE ENCODING AN CYCLOOXYGENASE ENZYME BY TREATING A HUMAN SUBJECT WITH A NITROXIDE” (priority 2021, published 2025).

Columns and labels:
[1] = tested on: COX1; test: Treatment of human subject with Tempol, serum level of COX1; format: in vivo; conditions: 2000 mg per day for 180 days
Protocol: A 70-kilogram human subject over the age of 65 and having a cardiovascular disease is identified for an increased expression level of COX1. Or a 70-kilogram human subject over the age of 65 is known to have a cardiovascular disease and/or […] expression level of COX1. The human subject is administered a dose of 2000 mg of Tempol (or another nitroxide antioxidant) per day for 180 days. This may be administered in a single dose, or may be administered as a number of smaller doses over a 24-hour period: for example, four 500-mg doses at […]. Following treatment, the serum level of COX1, is decreased.
A 70-kilogram human subject at risk of developing colorectal cancer is identified for increased expression level of COX1. Or a 70-kilogram human subject is known to be at risk of developing colorectal cancer and/or have increased expression level of COX1. The human subject is administered a dose of 2000 mg of Tempol (or another nitroxide antioxidant) per day for 180 days. This may be administered in a single dose, or may be administered as a number of smaller doses over a 24-hour period: for example, four 500-mg doses at […]. Following treatment, the serum level of COX1, is decreased. […]
A 70-kilogram human subject having an infection (e.g., a bacterial, fungal, or viral infection) is identified for increased expression level of COX1. Or a 70-kilogram human subject is known to have an infection and/or have increased expression level of COX1. The human subject is administered a dose of 2000 mg of Tempol (or another nitroxide antioxidant) per day for 180 days. This may be administered in a single dose, or may be administered as a number of smaller doses over a 24-hour period: for example, four 500-mg doses at […]. Following treatment, the serum level of COX1, is decreased.

[2] = tested on: PTGS1 (COX1); test: Effects of Tempol on gene expression in cardiac tissue, chip-based microarray; format: in vivo; conditions: mice, Tempol 5 mg/g of food from 14 to 31 months after birth
Protocol: To assess the effects of Tempol on gene expression, Tempol was administered to experimental mice at a dose of 5 mg/g of food from 14 months to 31 months after birth. Mice receiving the same food without the addition of Tempol were used as a negative control. At the age of 31 months, the experimental animals were sacrificed and the hearts were surgically removed. The expression of a broad spectrum of genes in the cardiac tissue was assessed using chip-based microarray technology. Such chips are well known in the art and are widely used to assess gene expression.

## CC1(C)CC(O)CC(C)(C)N1[O] [Tempol, 4-hydroxy-2,2,6,6-tetramethylpiperidine-1-oxyl]
[1]; Example 2: 70-kilogram human subject over the age of 65 with increased COX1 expression
  serum level of COX1 following treatment: decreased
[1]; Example 3: 70-kilogram human subject with increased COX1 expression
  serum level of COX1 following treatment: decreased
[1]; Example 4: 70-kilogram human subject over the age of 65 having a cardiovascular disease
  serum level of COX1 following treatment: decreased
[1]; Example 5: 70-kilogram human subject at risk of developing colorectal cancer
  serum level of COX1 following treatment: decreased
[1]; Example 6: 70-kilogram human subject at risk of developing an autoimmune disease (e.g., rheumatoid arthritis)
  serum level of COX1 following treatment: decreased
[1]; Example 7: 70-kilogram human subject at risk of developing a condition due to aging
  serum level of COX1 following treatment: decreased
[1]; Example 8: 70-kilogram human subject at risk of developing a neurodegenerative disease (e.g., Parkinson's Disease)
  serum level of COX1 following treatment: decreased
[1]; Example 9: 70-kilogram human subject having an infection (bacterial, fungal, or viral)
  serum level of COX1 following treatment: decreased
[2]; hearts at 31 months, vs same food without Tempol, P-value 0.006
  Fold change (gene expression in cardiac tissue after Tempol administration): −1.18
[2]; microarray
  COX1 expression in cardiac tissue: statistically significant decrease in expression
